# Results: paper PMC5307958 (Scientific Reports, 2017)
# Entries after “also recorded” stand apart in the source; their conditions may differ. Where a SMILES comes first, the peptide text is derived from it. Bridges are numbered along the chain shown (N, C = ends).
# Columns and labels:
# [1] = tested on: hslo(+) human BK channel gene (ZERO isoform) expressed in slo-1(null) worms; test: C. elegans crawl speed, hslo(+) rescue on slo-1 null background; assay type: in vivo, Caenorhabditis elegans; details: 750 μM LS3, 30 min; transgenic hslo(+) on slo-1(null) background; vs. slo-1(null): p < 0.001, N = 78–162
# Experimental: Worms were cultivated at 20 °C as described with OP50 bacteria. Worms cultured on plates contaminated with fungi or other bacteria were excluded from this study. The reference wild-type strain was N2 Bristol. The reference slo-1(null) strain and background for transgenic strains was NM1968, harboring the previously characterized null allele, js379[29]. Multi-site gateway technology (Invitrogen) was used to construct plasmids. […] of the native slo-1 promoter (Pslo-1) and the traditional unc-54 UTR were used in combination with slo-1a(cDNA)::mCherry for a rescue construct. To test rescue with the human BK channel, an hslo(ZERO isoform, cDNA)::mCherry version was constructed. The slo-1(+) and hslo(+) plasmids were injected at a concentration of 20 and 10 ng/μl, respectively. The co-injection reporter PCFJ90 (1.25 ng/μl) was used to ensure proper transformation of the arrays. As such, JPS345 carried vxEx345, an extrachromosomal array containing [Pslo-1::slo-1::mCherry::unc-54UTR,Pmyo-2::mCherry::unc-54UTR]. JPS340 carried […], an extrachromosomal array containing [Pslo-1::hslo::mCherry::unc-54UTR,Pmyo-2::mCherry::unc-54UTR].
# Age-matched day one adults were cleaned of bacteria by letting them crawl around on an unseeded plate and then moved into a puddle of NGM or peptide dissolved in NGM on another unseeded plate. […]
# mAcetylcholine M4 = test: Competition radioligand binding (NIMH PDSP); details: radioligand QNB, measured 4 times
# [2] = biological target: T1, human BKα channel (ZERO isoform) expressed in HEK293 cells (Homo sapiens, UniProt Q12791); test: Patch-clamp recording, inside-out patches, extracellular application; assay type: cell-based
# T1 construct: expressed in transfected cells; host or cells: HEK293 (ATCC), transient transfection with Lipofectamine 2000; EGFP cotransfected as a separate marker
# T1 sequence (Q12791 1-1178 isoform Q12791-5): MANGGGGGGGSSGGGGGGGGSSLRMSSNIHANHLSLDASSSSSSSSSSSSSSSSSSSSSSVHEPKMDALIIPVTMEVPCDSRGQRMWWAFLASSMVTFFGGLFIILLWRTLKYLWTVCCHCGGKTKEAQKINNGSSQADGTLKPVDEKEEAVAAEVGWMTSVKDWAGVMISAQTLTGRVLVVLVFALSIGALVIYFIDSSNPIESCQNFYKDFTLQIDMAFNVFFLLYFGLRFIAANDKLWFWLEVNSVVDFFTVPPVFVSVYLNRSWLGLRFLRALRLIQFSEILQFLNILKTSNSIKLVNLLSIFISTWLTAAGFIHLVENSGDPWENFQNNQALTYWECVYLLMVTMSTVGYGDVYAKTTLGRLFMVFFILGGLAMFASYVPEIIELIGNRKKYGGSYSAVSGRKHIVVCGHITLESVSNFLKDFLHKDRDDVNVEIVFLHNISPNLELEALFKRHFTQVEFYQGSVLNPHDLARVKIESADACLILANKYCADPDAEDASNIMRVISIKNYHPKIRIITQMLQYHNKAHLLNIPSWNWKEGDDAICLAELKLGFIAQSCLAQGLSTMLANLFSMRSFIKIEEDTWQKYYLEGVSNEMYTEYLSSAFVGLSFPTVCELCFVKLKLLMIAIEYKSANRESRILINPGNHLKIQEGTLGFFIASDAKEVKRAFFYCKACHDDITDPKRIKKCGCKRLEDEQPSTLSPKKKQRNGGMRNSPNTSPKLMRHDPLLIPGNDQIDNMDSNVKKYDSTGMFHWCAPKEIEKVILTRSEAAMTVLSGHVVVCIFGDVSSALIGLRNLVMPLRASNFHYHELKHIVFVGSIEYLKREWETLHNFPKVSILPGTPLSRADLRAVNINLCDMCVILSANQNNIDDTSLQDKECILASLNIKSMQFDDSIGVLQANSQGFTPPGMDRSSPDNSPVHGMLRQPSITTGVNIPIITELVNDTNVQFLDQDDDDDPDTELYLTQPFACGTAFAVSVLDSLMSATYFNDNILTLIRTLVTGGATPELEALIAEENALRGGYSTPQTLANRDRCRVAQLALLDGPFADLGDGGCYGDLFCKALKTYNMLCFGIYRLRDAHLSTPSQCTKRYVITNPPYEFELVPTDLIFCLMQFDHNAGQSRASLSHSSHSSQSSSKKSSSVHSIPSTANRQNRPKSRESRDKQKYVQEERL
# Experimental: HEK293 cells (ATCC, Manassas, VA) were grown according to standard procedures. Cells were cultured at 37 °C in a 5% CO2 atmosphere in Dulbecco’s modified Eagle’s medium with L-glutamine, sodium pyruvate and 10% fetal bovine serum (Invitrogen). Cell lines were split with trypsin/EDTA in Hanks’ balanced salt solution (Invitrogen) up to 25–30 cycles. For phage display, stable lines stably expressed rSK2 or hBKα ZERO isoform. Cells were transfected (Lipofectamine 2000, Invitrogen) with hGlyRα1 and used 48 hours later. For electrophysiological recordings, cells were transfected with hBKα ZERO isoform. Enhanced green fluorescent protein (EGFP) was cotransfected as a marker. Electrophysiological recordings were made 16–72 h after transfection. Although the profile of BK channel composition varies from tissue to tissue, the ZERO BK channel splice variant is widely expressed, particularly in the nervous system, serving as a representative form for studying the modulation of BK channel gating.
# Voltage-clamp recordings were performed at room temperature (22–24 °C) using an inside-out configuration on patches pulled from HEK293 cells. The extracellular solution contained the following (in mM): 2 KCl, 136 KOH, 20 HEPES, 2 MgCl2, adjusted to pH 7.2 with MeSO3H. In order to apply peptide to the extracellular surface, patch electrodes (7–20 MΩ in resistance) were tip-filled with normal extracellular solution and backfilled with extracellular solution containing LS3. Enough normal extracellular solution was included to provide at least five minutes of peptide-free recording (determined by plotting Po vs. time). The intracellular solution (in the bath) contained the following (in mM): 6 KCl, 132 KOH, 20 HEPES, adjusted to pH 7.2 with MeSO3H. To achieve 750 nM free Ca^2+, […] and 5 mM EGTA were included, a ratio verified by measurement with a Ca^2+-sensitive electrode. Voltage-clamp recordings made with an Axopatch 200 A amplifier and custom macros in IgorPro. Analysis was performed with QUB (http://www.qub.buffalo.edu), including Po, mean open time and three component exponential fits to closed dwell times. Group means±SEM for post-peptide measures were plotted relative to pre-peptide values and compared with pre values via planned paired t-tests.
compound,measurement,setting,value
CC(C)C[C@@H]1NC(=O)CNC(=O)[C@H](CCCNC(=N)N)NC(=O)[C@H](CCCNC(=N)N)NC(=O)[C@@H](N)CSSC[C@@H](C(=O)O)NC(=O)[C@H](C(C)C)NC(=O)[C@H](CCC(N)=O)NC(=O)[C@H](C(C)C)NC1=O [LS3] (H-CRRGLVQVC-OH; disulfide 1-9; N-terminus and C-terminus assumed),LS3-induced slowing response (reduction in crawl speed),[1],rescued the LS3-induced slowing response
same,% inhibition by 10 µM LS3,mAcetylcholine M4,6.8%
same,effect on Po (post vs. pre peptide),"[2]; 50 pM LS3, extracellular, any voltage (60–100 mV), 750 nM Ca",did not significantly alter the Po
same,effect on Po (post vs. pre peptide),"[2]; 500 pM to 500 nM LS3, extracellular, each holding potential 60–100 mV, 750 nM Ca, N = 6–12",reduced the Po at each holding potential
same,effect on Po (post vs. pre peptide),"[2]; 50 nM LS3 applied to extracellular (external) side, each voltage, p < 0.05, N = 6",reduction in Po at each voltage; also recorded: significantly reduce Po at all voltages
same,short closed dwell times,"[2]; 500 nM LS3, 750 nM Ca, three-component exponential fits, component 0, N = 8",remained unchanged; also recorded: did not change significantly
same,long closed dwell times,"[2]; 500 nM LS3, 750 nM Ca, three-component exponential fits, component 2, p < 0.05, N = 8",increased; also recorded: lengthened
same,post Po relative to pre,"[2]; 500 nM LS3, 40 mV, p < 0.05",0.54 ± 0.17
same,single channel conductance post LS3,"[2]; 500 nM LS3, 60 mV, pre peptide 282 ± 4.62 pS (remained stable)",287 ± 5.12 pS
same,mean open times,"[2]; 500 nM LS3, all holding potentials 60–100 mV, 750 nM Ca, p < 0.05, N = 8",decreasing mean open times at all holding potentials; also recorded: shortened openings
same,reduction of probability of channel opening (Po),"[2]; 60 mV, high picomolar to nanomolar LS3, extracellular, intracellular calcium 750 nM",~ 60%
same,apparent affinity compared with known blockers,[2]; LS3 vs. known high affinity BK channel toxins / Kv peptide toxins or paxilline,higher than known high affinity BK channel toxins; also recorded: higher apparent affinity than Kv peptide toxins or paxilline
same,mode of action on channel,"[2]; from change in mean open and closed times, rather than blocking the pore",modulates channel gating
same,IC50 for reduction of BK channel open probability (Po),"[2]; inside-out patches, peptide applied to extracellular side, intracellular calcium 750 nM, 22–24 °C, approximate, in words",mid-picomolar range
